Consider seven compounds from patent publication US6921835B2, “Cyclic amino acids and derivatives thereof useful as pharmaceutical agents” (Warner Lambert Company, priority 1997, dated 2005).

Counter-ions that a name gives are not always drawn. Like-named read-outs stand apart in the source and are kept apart here.

For one assay, the target named is T1, α2δ subunit (Sus scrofa, UniProt A0A287BIN3).
T1 construct: the α2δ subunit derived from porcine brain tissue was used; from tissue; host or cells: porcine brain tissue
T1 sequence (A0A287BIN3 25-1109): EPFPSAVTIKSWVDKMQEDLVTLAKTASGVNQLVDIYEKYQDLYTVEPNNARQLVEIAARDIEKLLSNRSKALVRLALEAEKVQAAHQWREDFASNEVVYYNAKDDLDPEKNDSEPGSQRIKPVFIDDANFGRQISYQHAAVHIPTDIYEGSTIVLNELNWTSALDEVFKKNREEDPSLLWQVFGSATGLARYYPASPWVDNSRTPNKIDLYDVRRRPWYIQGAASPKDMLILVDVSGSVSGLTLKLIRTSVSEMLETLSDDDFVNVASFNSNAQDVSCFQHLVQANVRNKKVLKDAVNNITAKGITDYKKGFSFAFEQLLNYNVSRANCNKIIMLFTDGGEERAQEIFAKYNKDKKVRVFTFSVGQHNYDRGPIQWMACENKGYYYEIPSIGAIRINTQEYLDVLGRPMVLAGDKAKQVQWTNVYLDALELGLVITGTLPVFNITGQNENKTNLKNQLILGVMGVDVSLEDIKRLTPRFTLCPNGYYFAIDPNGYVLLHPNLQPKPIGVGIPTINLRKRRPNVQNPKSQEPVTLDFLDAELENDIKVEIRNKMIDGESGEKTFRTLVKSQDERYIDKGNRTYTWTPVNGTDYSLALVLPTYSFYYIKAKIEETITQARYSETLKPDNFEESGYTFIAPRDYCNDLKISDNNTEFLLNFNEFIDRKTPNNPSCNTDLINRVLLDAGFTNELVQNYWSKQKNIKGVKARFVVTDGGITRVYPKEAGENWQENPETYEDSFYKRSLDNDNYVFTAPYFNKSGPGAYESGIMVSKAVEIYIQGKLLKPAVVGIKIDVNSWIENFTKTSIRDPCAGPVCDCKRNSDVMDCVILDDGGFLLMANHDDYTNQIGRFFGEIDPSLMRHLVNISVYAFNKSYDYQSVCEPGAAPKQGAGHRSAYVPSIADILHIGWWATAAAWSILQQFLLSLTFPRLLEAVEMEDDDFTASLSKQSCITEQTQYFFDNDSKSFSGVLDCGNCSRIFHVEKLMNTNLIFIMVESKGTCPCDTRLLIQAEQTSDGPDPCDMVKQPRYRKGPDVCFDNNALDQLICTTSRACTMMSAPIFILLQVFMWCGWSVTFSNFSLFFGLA
Nature of the assay: radioligand binding assay using [3H]gabapentin and the α2δ subunit. Also on record: species or system porcine.

In assay [1] the test system is Carrageenan Induced Thermal Hyperalgesia in the Rat. Nature of the assay: Carrageenan-induced thermal hyperalgesia in the rat (plantar test, paw withdrawal latency). The format is in vivo. As to conditions: MPE = maximum possible effect, baseline before carrageenan. The procedure:
Male Sprague-Dawley rats (180-250 g) were obtained from Bantin and Kingman, (Hull, U.K.). Animals were housed in groups of 6 to 10 under a 12 hour light/dark cycle (lights on at 7 hours, 0 minutes) with food and water ad libitum.
Carrageenan-induced Thermal Hyperalgesia in the Rat
Thermal hyperalgesia was assessed using the rat plantar test (Ugo Basile, Italy) following a modified method of Hargreaves, et al., 1988. Rats were habituated to the apparatus which consisted of three individual perspex boxes on an elevated glass table. A mobile radiant heat source located under the table was focused onto the desired paw and paw withdrawal latencies (PWL) recorded. PWL were taken 3 times for both hind paws of each animal, the mean of which represented baselines for right and left hind paws. At least 5 minutes were allowed between each PWL for an animal. The apparatus was calibrated to give a PWL of approximately 10 s. There was an automatic cutoff point of 20 s to prevent tissue damage. After baseline PWLs were determined, animals received an intraplantar injection of carrageenan (100 μL of 20 mg/mL) into the right hind paw. PWLs were reassessed following the same protocol as above 2-hour post-carrageenan (this time point represented the start of peak hyperalgesia) to ascertain that hyperalgesia had developed. Test compounds were administered orally (in a volume of 1 mL/kg) at 2.5 hours after carrageenan. PWLs were reassessed at various times after drug administration.

In assay [2] the test system is sound-induced tonic seizures in DBA/2 mice. Nature of the assay: DBA2 test: prevention of audiogenic seizures in DBA/2 mice. The note with it: DBA/2 mouse. The format is in vivo. The procedure: A Model of Anticonvulsant Efficacy and Protocol for DBA2 Test: Prevention of Audiogenic Seizures in DBA/2 Mice
All procedures were carried out in compliance with the NI/H Guide for the Care and Use of Laboratory Animals under a protocol approved by the Parke-Davis Animal Use Committee. Male DBA/2 mice, 3 to 4 weeks old, were obtained from Jackson Laboratories, Bar Harbour, Me. Immediately before anticonvulsant testing, mice were placed upon a wire mesh, 4 inches square suspended from a steel rod. The square was slowly inverted through 180 degrees and mice observed for 30 seconds. Any mouse falling from the wire mesh was scored as ataxic.
Mice were placed into an enclosed acrylic plastic chamber (21 cm height, approximately 30 cm diameter) with a high-frequency speaker (4 cm diameter) in the center of the top lid. An audio signal generator (Protek model B-810) was used to produce a continuous sinusoidal tone that was swept linearly in frequency between 8 kHz and 16 kHz once each 10 msec. The average sound pressure level (SPL) during stimulation was approximately 100 dB at the floor of the chamber. Mice were placed within the chamber and allowed to acclimatize for 1 minute. DBA/2 mice in the vehicle-treated group responded to the sound stimulus (applied until tonic extension occurred, or for a maximum of 60 seconds) with a characteristic seizure sequence consisting of wild running followed by clonic seizures, and later by tonic extension, and finally by respiratory arrest and death in 80% or more of the mice. In vehicle-treated mice, the entire sequence of seizures to respiratory arrest lasts approximately 15 to 20 seconds.
The incidence of all the seizure phases in the drug-treated and vehicle-treated mice was recorded, and the occurrence of tonic seizures were used for calculating anticonvulsant ED50 values by probit analysis. Mice were used only once for testing at each dose point. […] All drugs in the present study were dissolved in distilled water and given by oral gavage in a volume of 10 mL/kg of body weight. compounds that are insoluble will be suspended in 1% carboxymethocellulose. Doses are expressed as weight of the active drug moiety.

As usually defined, the IC50 is the concentration that inhibits the measured activity by half.

Take `C[C@@H]1C[C@](CN)(CC(=O)O)C[C@@H]1C` [(1α,3β,4β)-(1-Aminomethyl-3,4-dimethyl-cyclopentyl)-acetic acid hydrochloride]: the IC50 at α2δ subunit (read-out: IC50 (μM) at α2δ binding site) stood at 0.154 µM. In assay [1], the “% MPE 1 hr postdose @ 30 mg/kg PO” value is −7 % MPE and the “% MPE 2 hr postdose @ 30 mg/kg PO” value is on record as −2 % MPE. In addition, in assay [2], the “% Protected 1 hr postdose 30 mg/kg PO” value is 100%.
`C[C@@H]1CC(CN)(CC(=O)O)C[C@H]1C.Cl` (racemic) [(±)-(trans)-(1-Aminomethyl-3,4-dimethyl-cyclopentyl)-acetic acid hydrochloride] displayed an IC50 on α2δ subunit of 0.034 µM. Moreover, in assay [1], the “% MPE 1 hr postdose @ 30 mg/kg PO” value came out at 23 % MPE and the “% MPE 2 hr postdose @ 30 mg/kg PO” value worked out at 72 % MPE. For the same compound, the “% Protected 1 hr postdose 30 mg/kg PO” value in assay [2] came to 100%.
`Cl.NCC1(CC(=O)O)CCC1` [(1-Aminomethyl-cyclobutyl)-acetic acid hydrochloride]: the IC50 at α2δ subunit stood at 0.598 µM. For the same compound, in assay [1], the “% MPE 1 hr postdose @ 30 mg/kg PO” value came to 4 % MPE and the “% MPE 2 hr postdose @ 30 mg/kg PO” value turned out to be 4 % MPE. For the same compound, in assay [2] (2 hour postdose), the “% Protected (2 hour postdose) 30 mg/kg PO” value is 20 (2 hour postdose) %.
As to `C[C@@H]1CC(CN)(CC(=O)O)C[C@H]1C` [(3R,4R)-(1-Aminomethyl-3,4-dimethyl-cyclopentyl)-acetic acid hydrochloride], the IC50 on α2δ subunit turned out to be 1 µM.
On α2δ subunit, `NCC1(CC(=O)O)CC(Cc2ccccc2)C1` (mixture of isomers) [(cis/trans)-(1-Aminomethyl-3-benzyl-cyclobutyl)-acetic acid hydrochloride] displayed an IC50 above 10 µM. In addition, in assay [1], the “% MPE 1 hr postdose @ 30 mg/kg PO” value worked out at 0 % MPE and the “% MPE 2 hr postdose @ 30 mg/kg PO” value was found to be 0 % MPE.
In the case of `C[C@H]1CC(CN)(CC(=O)O)C[C@@H]1C.Cl` [(3S,4S)-(1-Aminomethyl-3,4-dimethyl-cyclopentyl)-acetic acid hydrochloride], the IC50 on α2δ subunit was 0.022 µM. In assay [1], the “% MPE 1 hr postdose @ 30 mg/kg PO” value amounted to 109 % MPE and the “% MPE 2 hr postdose @ 30 mg/kg PO” value was determined as 118 % MPE. Also, the “% Protected 1 hr postdose 30 mg/kg PO” value in assay [2] is given as 100%.
The matching figures for `C[C@@H]1CCC(CN)(CC(=O)O)C1` (mixture of isomers) [(cis/trans)-(3R)-(1-Aminomethyl-3-methyl-cyclopentyl)-acetic acid hydrochloride]: 0.088 µM, 67 % MPE, 53 % MPE and 100%.
